ChEMBL document CHEMBL3991601, “The target landscape of clinical kinase drugs” (Science, 2017)
Calls of active or inactive are those of the source. Rule as the data show it, for most assays here: actives have a measured Kd and inactives only a lower limit.

Experiments:
[1] = molecular target: T1, Acyl-CoA dehydrogenase family member 11 (Homo sapiens, UniProt Q709F0)
T1 sequence (Q709F0 whole entry): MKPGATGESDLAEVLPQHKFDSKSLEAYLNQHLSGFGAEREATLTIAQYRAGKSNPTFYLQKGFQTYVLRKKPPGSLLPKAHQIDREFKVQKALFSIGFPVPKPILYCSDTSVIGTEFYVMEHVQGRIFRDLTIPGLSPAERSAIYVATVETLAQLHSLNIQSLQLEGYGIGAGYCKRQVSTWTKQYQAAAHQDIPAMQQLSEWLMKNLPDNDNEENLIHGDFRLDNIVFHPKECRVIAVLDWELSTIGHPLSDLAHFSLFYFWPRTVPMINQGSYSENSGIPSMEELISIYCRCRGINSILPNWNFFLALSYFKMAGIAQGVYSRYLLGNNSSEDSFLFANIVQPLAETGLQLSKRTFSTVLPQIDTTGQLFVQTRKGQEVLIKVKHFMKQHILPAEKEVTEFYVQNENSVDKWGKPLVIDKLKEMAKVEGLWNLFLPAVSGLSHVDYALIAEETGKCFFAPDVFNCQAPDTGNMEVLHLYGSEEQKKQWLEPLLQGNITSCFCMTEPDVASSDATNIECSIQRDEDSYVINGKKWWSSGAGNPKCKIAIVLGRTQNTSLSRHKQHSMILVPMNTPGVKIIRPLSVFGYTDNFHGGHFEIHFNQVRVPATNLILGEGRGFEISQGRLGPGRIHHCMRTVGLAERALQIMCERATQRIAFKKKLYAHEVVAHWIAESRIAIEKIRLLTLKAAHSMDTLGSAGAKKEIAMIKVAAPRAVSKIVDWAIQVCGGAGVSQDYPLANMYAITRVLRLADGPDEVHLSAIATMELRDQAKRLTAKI

[2] = molecular target: Mitotic checkpoint serine/threonine-protein kinase BUB1 (Homo sapiens, UniProt O43683)
Chain of Mitotic checkpoint serine/threonine-protein kinase BUB1 (O43683 whole entry): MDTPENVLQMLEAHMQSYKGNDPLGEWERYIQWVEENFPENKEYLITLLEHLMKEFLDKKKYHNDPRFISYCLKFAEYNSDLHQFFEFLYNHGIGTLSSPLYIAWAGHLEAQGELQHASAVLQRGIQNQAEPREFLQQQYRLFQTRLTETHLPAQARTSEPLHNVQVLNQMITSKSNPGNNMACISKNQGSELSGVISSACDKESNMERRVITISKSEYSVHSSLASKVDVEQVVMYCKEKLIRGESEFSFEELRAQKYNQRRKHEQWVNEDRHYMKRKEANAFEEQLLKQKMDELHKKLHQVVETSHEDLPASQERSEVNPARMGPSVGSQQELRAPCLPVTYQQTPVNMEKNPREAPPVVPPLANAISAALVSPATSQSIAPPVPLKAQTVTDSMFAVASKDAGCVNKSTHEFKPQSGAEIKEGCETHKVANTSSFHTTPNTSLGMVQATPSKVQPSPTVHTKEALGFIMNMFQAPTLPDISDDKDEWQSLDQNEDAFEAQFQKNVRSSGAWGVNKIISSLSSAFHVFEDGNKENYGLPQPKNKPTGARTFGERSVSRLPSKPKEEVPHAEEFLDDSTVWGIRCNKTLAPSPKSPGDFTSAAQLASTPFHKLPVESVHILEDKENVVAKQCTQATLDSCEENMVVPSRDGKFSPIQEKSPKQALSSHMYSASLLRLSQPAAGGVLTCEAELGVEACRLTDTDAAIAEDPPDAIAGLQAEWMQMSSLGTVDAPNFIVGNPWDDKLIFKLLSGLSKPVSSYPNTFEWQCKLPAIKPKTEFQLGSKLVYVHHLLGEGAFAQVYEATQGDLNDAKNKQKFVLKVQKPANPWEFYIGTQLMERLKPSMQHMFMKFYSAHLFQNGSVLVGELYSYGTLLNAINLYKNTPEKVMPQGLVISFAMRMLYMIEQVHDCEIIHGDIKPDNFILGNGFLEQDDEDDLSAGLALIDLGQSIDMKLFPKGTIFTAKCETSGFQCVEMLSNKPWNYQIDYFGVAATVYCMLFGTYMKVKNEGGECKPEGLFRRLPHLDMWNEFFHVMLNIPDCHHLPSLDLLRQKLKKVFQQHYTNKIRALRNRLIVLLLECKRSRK

[3] = molecular target: T2, Ferrochelatase, mitochondrial (Homo sapiens, UniProt P22830)
T2 sequence (P22830 whole entry): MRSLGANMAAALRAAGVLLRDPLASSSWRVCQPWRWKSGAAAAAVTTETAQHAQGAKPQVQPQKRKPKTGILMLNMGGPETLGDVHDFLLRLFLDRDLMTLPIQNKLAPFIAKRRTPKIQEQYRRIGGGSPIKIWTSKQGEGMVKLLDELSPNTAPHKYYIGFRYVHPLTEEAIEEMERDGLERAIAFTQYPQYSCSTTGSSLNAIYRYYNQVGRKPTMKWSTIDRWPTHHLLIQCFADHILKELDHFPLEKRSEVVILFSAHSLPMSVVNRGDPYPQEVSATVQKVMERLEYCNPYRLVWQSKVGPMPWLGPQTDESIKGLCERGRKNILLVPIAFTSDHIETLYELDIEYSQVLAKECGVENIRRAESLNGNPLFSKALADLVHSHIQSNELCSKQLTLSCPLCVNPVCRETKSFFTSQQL

[4] = molecular target: Inosine-5'-monophosphate dehydrogenase 2 (Homo sapiens, UniProt P12268)
[5] = molecular target: Maternal embryonic leucine zipper kinase (Homo sapiens, UniProt Q14680)
[6] = molecular target: Ribosomal protein S6 kinase alpha-5 (Homo sapiens, UniProt O75582)
Chain of Ribosomal protein S6 kinase alpha-5 (O75582 whole entry): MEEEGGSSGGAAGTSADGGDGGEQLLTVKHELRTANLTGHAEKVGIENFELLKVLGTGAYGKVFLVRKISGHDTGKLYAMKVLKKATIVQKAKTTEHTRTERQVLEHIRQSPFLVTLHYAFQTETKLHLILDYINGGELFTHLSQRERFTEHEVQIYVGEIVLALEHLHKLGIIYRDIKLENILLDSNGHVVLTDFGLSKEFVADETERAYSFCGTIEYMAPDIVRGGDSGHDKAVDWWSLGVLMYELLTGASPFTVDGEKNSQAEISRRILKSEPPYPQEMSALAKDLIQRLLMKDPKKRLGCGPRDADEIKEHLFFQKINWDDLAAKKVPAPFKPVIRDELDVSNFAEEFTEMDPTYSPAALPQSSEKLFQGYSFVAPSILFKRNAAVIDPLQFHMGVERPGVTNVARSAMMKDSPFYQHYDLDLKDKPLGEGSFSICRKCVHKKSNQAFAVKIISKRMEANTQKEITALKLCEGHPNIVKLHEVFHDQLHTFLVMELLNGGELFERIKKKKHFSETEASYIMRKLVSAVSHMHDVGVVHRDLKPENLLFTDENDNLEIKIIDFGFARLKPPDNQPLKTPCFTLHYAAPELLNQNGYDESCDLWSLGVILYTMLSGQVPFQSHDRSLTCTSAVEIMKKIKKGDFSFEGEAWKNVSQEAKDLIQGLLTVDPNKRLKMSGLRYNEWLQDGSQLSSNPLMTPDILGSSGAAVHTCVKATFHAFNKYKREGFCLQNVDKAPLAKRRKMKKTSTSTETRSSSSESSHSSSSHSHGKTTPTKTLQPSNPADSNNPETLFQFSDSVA

[7] = molecular target: Proto-oncogene tyrosine-protein kinase Src (Homo sapiens, UniProt P12931)
Chain of Proto-oncogene tyrosine-protein kinase Src (P12931 2-536 limits assumed): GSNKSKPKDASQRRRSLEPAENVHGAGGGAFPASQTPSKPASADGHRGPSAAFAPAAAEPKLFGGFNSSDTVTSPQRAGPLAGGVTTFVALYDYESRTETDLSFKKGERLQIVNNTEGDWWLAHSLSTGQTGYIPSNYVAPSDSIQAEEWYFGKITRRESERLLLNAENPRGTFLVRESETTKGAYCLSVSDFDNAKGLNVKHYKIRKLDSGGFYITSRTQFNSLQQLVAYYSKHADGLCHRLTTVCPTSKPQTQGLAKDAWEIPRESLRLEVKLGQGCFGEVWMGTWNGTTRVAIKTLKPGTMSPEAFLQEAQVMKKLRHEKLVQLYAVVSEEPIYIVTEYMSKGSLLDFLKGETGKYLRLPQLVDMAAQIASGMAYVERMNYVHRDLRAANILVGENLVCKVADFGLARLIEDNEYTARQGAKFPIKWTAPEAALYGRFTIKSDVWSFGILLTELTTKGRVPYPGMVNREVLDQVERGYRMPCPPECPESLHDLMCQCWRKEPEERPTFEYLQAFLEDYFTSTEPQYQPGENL

[8] = molecular target: T3, Tyrosine-protein kinase Tec (Homo sapiens, UniProt P42680)
T3 sequence (P42680 whole entry): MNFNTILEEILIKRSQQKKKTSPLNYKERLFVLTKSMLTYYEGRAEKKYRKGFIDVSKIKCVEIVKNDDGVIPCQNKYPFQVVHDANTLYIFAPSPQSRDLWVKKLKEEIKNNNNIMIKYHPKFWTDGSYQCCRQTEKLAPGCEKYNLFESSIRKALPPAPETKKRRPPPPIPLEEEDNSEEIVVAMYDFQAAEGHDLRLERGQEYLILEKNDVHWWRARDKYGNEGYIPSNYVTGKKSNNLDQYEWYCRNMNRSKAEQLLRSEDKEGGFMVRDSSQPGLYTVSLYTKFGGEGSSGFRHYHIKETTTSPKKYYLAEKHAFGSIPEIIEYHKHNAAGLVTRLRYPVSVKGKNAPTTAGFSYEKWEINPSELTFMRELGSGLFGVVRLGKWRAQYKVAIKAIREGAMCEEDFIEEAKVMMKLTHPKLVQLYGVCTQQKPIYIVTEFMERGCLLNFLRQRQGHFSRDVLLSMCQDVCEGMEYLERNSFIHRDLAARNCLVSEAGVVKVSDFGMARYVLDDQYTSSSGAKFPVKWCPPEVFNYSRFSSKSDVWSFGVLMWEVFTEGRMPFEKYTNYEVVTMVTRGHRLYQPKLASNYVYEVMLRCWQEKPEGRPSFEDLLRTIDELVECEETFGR

TGF-beta receptor type-2 = TGF-beta receptor type-2 (Homo sapiens, UniProt P37173)
Chain of TGF-beta receptor type-2 (P37173 whole entry): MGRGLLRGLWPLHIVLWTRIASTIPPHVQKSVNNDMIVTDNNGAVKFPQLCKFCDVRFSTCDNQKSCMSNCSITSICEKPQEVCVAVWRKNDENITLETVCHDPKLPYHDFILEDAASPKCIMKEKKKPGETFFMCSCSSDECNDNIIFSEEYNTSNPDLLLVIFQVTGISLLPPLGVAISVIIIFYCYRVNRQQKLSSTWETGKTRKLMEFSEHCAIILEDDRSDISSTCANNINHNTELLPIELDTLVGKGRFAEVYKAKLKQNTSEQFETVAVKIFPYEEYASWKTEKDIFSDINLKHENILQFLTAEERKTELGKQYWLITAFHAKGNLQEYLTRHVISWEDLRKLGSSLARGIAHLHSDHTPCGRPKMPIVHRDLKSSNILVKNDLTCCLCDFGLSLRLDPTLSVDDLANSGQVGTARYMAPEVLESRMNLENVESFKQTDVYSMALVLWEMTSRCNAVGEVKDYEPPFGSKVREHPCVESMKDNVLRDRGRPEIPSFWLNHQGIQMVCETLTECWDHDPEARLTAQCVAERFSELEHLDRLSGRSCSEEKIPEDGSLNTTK

DNA topoisomerase 2-beta = DNA topoisomerase 2-beta (Homo sapiens, UniProt Q02880)
[9] = molecular target: Cyclin-dependent kinase 12 (Homo sapiens, UniProt Q9NYV4)
[10] = molecular target: Dual specificity mitogen-activated protein kinase kinase 2 (Homo sapiens, UniProt P36507)
Chain of Dual specificity mitogen-activated protein kinase kinase 2 (P36507 whole entry): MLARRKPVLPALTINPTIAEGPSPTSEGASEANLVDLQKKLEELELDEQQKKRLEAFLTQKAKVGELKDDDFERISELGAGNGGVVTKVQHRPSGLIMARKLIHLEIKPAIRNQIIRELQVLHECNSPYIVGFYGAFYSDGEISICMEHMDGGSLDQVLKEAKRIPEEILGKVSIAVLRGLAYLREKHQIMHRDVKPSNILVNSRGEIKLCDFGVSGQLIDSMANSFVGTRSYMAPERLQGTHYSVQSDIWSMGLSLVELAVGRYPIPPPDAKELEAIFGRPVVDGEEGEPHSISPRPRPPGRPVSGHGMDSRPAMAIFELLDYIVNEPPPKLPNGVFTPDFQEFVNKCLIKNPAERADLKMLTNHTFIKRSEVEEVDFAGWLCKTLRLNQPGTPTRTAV

[11] = molecular target: Mitogen-activated protein kinase 9 (Homo sapiens, UniProt P45984)
Chain of Mitogen-activated protein kinase 9 (P45984 whole entry): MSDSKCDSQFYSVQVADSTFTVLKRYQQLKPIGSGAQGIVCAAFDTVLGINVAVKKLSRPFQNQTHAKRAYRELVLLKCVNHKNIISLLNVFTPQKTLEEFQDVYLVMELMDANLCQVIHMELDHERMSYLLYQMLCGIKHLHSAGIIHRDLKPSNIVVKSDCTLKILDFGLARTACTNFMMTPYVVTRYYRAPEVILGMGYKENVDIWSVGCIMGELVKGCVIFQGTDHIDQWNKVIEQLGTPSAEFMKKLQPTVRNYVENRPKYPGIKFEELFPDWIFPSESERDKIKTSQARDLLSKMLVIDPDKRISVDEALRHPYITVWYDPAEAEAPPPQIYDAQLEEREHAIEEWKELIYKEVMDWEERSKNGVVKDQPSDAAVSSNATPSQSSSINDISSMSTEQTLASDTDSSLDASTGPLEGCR

[12] = molecular target: 5'-AMP-activated protein kinase catalytic subunit alpha-1 (Homo sapiens, UniProt Q13131)
Chain of 5'-AMP-activated protein kinase catalytic subunit alpha-1 (Q13131 whole entry): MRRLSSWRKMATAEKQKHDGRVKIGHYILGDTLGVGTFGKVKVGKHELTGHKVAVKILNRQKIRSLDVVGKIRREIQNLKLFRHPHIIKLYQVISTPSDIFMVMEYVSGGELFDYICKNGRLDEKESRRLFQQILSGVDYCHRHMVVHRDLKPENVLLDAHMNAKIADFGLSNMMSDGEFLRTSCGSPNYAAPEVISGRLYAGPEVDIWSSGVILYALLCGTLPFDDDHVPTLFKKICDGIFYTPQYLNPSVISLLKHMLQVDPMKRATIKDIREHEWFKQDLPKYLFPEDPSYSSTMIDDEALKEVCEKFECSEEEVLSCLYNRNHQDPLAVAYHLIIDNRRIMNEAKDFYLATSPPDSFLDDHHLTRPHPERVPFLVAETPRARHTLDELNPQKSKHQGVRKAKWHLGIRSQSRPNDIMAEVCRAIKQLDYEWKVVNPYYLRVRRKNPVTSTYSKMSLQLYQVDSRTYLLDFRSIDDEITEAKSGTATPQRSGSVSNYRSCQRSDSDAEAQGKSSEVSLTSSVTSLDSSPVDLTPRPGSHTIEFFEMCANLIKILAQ

[13] = molecular target: T4, Uncharacterized protein FLJ45252 (Homo sapiens, UniProt Q6ZSR9); details: read-out: Kd apparent; k-562, colo 205, sk-n-be(2) and mv-4-11
T4 sequence (Q6ZSR9 whole entry): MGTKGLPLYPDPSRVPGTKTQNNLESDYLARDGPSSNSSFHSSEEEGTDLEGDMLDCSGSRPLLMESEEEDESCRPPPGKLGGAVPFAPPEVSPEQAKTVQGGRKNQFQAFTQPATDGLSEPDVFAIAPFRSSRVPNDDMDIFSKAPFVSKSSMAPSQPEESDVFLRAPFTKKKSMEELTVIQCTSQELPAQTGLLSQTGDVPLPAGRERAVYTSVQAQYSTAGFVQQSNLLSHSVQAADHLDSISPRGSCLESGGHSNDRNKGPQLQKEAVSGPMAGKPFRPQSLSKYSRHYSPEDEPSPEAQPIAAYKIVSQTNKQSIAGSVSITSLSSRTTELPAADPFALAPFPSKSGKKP

[14] = molecular target: Tyrosine-protein kinase BTK (Homo sapiens, UniProt Q06187)
Chain of Tyrosine-protein kinase BTK (Q06187 whole entry): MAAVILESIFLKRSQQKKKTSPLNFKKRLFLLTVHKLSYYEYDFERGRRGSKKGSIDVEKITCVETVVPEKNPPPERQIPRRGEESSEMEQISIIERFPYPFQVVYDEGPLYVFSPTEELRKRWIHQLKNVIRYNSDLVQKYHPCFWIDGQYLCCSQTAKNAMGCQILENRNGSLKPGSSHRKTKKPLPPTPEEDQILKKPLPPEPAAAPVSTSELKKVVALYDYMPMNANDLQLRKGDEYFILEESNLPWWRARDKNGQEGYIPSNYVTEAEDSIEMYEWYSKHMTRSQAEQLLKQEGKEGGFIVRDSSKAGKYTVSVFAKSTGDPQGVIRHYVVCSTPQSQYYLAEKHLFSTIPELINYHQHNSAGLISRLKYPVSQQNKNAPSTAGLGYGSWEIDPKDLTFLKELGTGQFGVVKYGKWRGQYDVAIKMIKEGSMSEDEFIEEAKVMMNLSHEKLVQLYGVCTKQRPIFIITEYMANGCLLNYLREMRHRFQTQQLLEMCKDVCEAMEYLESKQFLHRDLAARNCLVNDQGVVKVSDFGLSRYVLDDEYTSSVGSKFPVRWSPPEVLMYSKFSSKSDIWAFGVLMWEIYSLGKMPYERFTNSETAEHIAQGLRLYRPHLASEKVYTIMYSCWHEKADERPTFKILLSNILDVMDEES

Measured: Kd
Also: in the data inactive means no Kd found up to 30 µM.

CCc1cnn2c(NCc3ccc[n+]([O-])c3)cc(N3CCCC[C@H]3CCO)nc12 [DINACICLIB]
inactive: [1] > 30 µM | [2] > 30 µM | [3] > 30 µM | [4] > 30 µM | [5] > 30 µM | [6] > 30 µM | [7] > 30 µM | [8] > 30 µM | TGF-beta receptor type-2 > 30 µM | DNA topoisomerase 2-beta > 30 µM

COc1cc2nccc(Oc3ccc(NC(=O)NC4CC4)c(Cl)c3)c2cc1C(N)=O [LENVATINIB]
inactive: [1] > 30 µM | [2] > 30 µM | [9] > 30 µM | [4] > 30 µM | [10] > 30 µM | [11] > 30 µM | [5] > 30 µM | [12] > 30 µM | [6] > 30 µM | [8] > 30 µM | TGF-beta receptor type-2 > 30 µM | DNA topoisomerase 2-beta > 30 µM | [13] > 30 µM
active: [3] 2.81 µM

OCCn1cc(-c2cnc3nnn(Cc4ccc5ncccc5c4)c3n2)cn1 [PF-04217903]
inactive: [1] > 30 µM | [2] > 30 µM | [9] > 30 µM | [3] > 30 µM | [4] > 30 µM | [5] > 30 µM | [6] > 30 µM | [7] > 30 µM | [8] > 30 µM | TGF-beta receptor type-2 > 30 µM | DNA topoisomerase 2-beta > 30 µM | [13] > 30 µM

CN1CCN(c2ccc3nc(-c4c(N)c5c(F)cccc5[nH]c4=O)[nH]c3c2)CC1 [DOVITINIB]
active: [13] 0.104 µM
inactive: [1] > 30 µM | [2] > 30 µM | [9] > 30 µM | [3] > 30 µM | [4] > 30 µM | DNA topoisomerase 2-beta > 30 µM

Cc1cc(Nc2cc(N3CCN(C)CC3)nc(/C=C/c3ccccc3)n2)n[nH]1 [ENMD-2076]
active: TGF-beta receptor type-2 2.35 µM
inactive: [1] > 30 µM | [14] > 30 µM | [2] > 30 µM | [9] > 30 µM | [3] > 30 µM | [4] > 30 µM | [10] > 30 µM | [12] > 30 µM | [6] > 30 µM | [8] > 30 µM | DNA topoisomerase 2-beta > 30 µM | [13] > 30 µM

CNC(=O)c1ccc(C)c(-n2c(C)cc(OCc3ccc(F)cc3F)c(Br)c2=O)c1 [PH-797804]
inactive: [1] > 30 µM | [14] > 30 µM | [2] > 30 µM | [9] > 30 µM | [3] > 30 µM | [4] > 30 µM | [10] > 30 µM | [5] > 30 µM | [12] > 30 µM | [6] > 30 µM | [7] > 30 µM | [8] > 30 µM | TGF-beta receptor type-2 > 30 µM | DNA topoisomerase 2-beta > 30 µM | [13] > 30 µM

COCCNCc1ccc(-c2cc3nccc(Oc4ccc(NC(=S)NC(=O)Cc5ccc(F)cc5)cc4F)c3s2)nc1 [GLESATINIB]
inactive: [1] > 30 µM | [14] > 30 µM | [2] > 30 µM | [9] > 30 µM | [3] > 30 µM | [4] > 30 µM | [10] > 30 µM | [11] > 30 µM | [5] > 30 µM | [12] > 30 µM | [6] > 30 µM | [8] > 30 µM | TGF-beta receptor type-2 > 30 µM | DNA topoisomerase 2-beta > 30 µM | [13] > 30 µM

O=C(Nc1cccc(Cl)c1)Nc1ncc(CCNc2ncnc3ccsc23)s1 [SNS-314]
inactive: [1] > 30 µM | [9] > 30 µM | [3] > 30 µM | [4] > 30 µM | [6] > 30 µM | [8] > 30 µM | TGF-beta receptor type-2 > 30 µM | DNA topoisomerase 2-beta > 30 µM | [13] > 30 µM

COc1cc2nccc(Oc3ccc(NC(=O)Nc4cc(C)on4)c(Cl)c3)c2cc1OC [TIVOZANIB]
inactive: [1] > 30 µM | [14] > 30 µM | [2] > 30 µM | [9] > 30 µM | [3] > 30 µM | [4] > 30 µM | [10] > 30 µM | [11] > 30 µM | [5] > 30 µM | [12] > 30 µM | [6] > 30 µM | [8] > 30 µM | TGF-beta receptor type-2 > 30 µM | DNA topoisomerase 2-beta > 30 µM | [13] > 30 µM

Cc1cn(-c2cc(NC(=O)c3ccc(C)c(Nc4nccc(-c5cccnc5)n4)c3)cc(C(F)(F)F)c2)cn1 [NILOTINIB]
inactive: [1] > 30 µM | [2] > 30 µM | [9] > 30 µM | [4] > 30 µM | DNA topoisomerase 2-beta > 30 µM | [13] > 30 µM

Nc1nc(N)c2nc(-c3cccc(O)c3)c(-c3cccc(O)c3)nc2n1 [TG100-115]
inactive: [1] > 30 µM | [2] > 30 µM | [9] > 30 µM | [3] > 30 µM | [4] > 30 µM | DNA topoisomerase 2-beta > 30 µM
active: [13] 3.01 µM

Cc1nc(N)sc1-c1ccnc(Nc2ccc(N3CCOCC3)cc2)n1 [CYC-116]
inactive: [1] > 30 µM | [9] > 30 µM | [4] > 30 µM | [10] > 30 µM | DNA topoisomerase 2-beta > 30 µM
active: [2] 0.111 µM | [3] 0.783 µM | TGF-beta receptor type-2 0.3 µM | [13] 0.007 µM
